We go through 45 compounds from US10604523B2, “1-aryl-4-methyl-[1,2,4]triazolo[4,3-a]quinoxaline derivatives” (Janssen Pharmaceutica NV, priority 2011, dated 2020).

The structures appear in SMILES notation. Like-named read-outs stand apart in the source and are kept apart here.

Assay [1] has as its target T1, Rat recombinant PDE10A (rPDE10A2) (Rattus norvegicus, UniProt Q9QYJ6).
T1 construct: made in house; host or cells: Sf9 insect cells (baculovirus)
T1 sequence (Q9QYJ6 1-794): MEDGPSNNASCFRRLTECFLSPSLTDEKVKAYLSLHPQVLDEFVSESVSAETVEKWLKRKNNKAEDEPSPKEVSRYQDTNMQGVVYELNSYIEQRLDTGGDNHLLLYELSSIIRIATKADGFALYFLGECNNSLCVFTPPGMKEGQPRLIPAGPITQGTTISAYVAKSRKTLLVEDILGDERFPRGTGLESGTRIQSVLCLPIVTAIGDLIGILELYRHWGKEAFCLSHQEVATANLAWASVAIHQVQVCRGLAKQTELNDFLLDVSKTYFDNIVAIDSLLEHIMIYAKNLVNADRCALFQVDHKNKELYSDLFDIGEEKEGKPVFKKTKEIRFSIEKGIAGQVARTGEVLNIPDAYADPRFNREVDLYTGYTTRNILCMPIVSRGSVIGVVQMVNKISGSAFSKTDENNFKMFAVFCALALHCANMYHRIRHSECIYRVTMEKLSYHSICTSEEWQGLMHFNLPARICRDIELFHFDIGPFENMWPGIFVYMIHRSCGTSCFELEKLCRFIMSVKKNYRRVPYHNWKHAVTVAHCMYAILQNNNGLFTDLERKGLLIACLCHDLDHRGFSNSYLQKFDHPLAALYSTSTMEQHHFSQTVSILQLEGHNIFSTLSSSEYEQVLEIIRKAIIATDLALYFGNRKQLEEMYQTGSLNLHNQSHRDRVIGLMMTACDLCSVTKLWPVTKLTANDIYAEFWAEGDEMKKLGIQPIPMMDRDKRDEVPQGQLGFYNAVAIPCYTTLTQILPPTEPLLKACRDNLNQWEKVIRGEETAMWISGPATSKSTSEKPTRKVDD
Nature of the assay: In vitro assay PDE10A (SPA, 3H-cAMP). Format: biochemical. As to conditions: for IC50: read-out: PIC50 PDE10 (converted).

Assay [2] relates to Apomorphine-induced agitation. Nature of the assay: Reversal of Apomorphine-induced Agitation in Rats (APO). As to conditions: for SC Dose at max effect / SC Max effect (cumulative agitation score over 60 min) / SC LAD (lowest active dose): subcutaneous route; for SC Max effect (cumulative agitation score over 60 min) / PO Max effect (cumulative agitation score over 60 min): apomorphine 1.0 mg/kg i.v.; for SC LAD (lowest active dose) / PO LAD (lowest active dose): lowest dose at which ≥67% tested animals respond. Format: in vivo, rat.
Protocol: Apomorphine (1.0 mg/kg, i.v.)-induced agitation was scored every 5 min over the first hour after injection of apomorphine. The score system was: (3) pronounced, (2) moderate, (1) slight, and (0) absent. […] For the present purpose, the cumulative agitation score over the whole 60-min observation period was used as a measure to describe the maximum effect (Max effect).

Where [3] appears, read: -log IC50 expressed in mol/L, rPDE10A2, 60 nM cAMP.

In the case of `CCOc1ccc(Cl)c(-c2nnc3c(C)nc4ccc(CN5CCOCC5)cc4n23)c1` [Compound B-70], the “PIC50 PDE10” value in assay [1] (setting [3]) turned out to be 6.58. In addition, in assay [2], the SC Dose at max effect came out at 10 mg/kg, the “SC Max effect (cumulative agitation score over 60 min)” value was determined as 24 and the SC LAD (lowest active dose) was > 10 mg/kg.

Regarding `COCCOc1cncc(-c2nnc3c(C)nc4ccc(CN5CCOCC5)cc4n23)c1` [Compound B-203], the “PIC50 PDE10” value in assay [1] (setting [3]) is 5.11.

For `CCCCOc1ccc(Cl)c(-c2nnc3c(C)nc4ccc(CNC(C)C)cc4n23)c1` [Compound B-149], the “PIC50 PDE10” value in assay [1] (setting [3]) worked out at 5.38.

With `Cc1nc2ccc(CN3CCCC(CO)C3)cc2n2c(-c3ccccc3Cl)nnc12` (centres unmarked) [Compound B-110], in assay [1], the IC50 was 44.7 nM. In addition, in assay [2], the SC Dose at max effect was determined as 10 mg/kg, the “SC Max effect (cumulative agitation score over 60 min)” value stood at 21 and the SC LAD (lowest active dose) is > 10 mg/kg.

On to `CCNC(=O)c1ccc2nc(C)c3nnc(-c4ccccc4)n3c2c1` [Compound B-65], for which, in assay [1], the IC50 is 251 nM. In assay [2], the PO Dose at Max Effect was determined as 10 mg/kg, the “PO Max effect (cumulative agitation score over 60 min)” value was determined as 21 and the PO LAD (lowest active dose) was > 10 mg/kg.

In the case of `Cc1nc2ccc(CN3CCOCC3)cc2n2c(-c3ccccc3Cl)nnc12` [Compound B-19, 1-(2-Chlorophenyl)-4-methyl-8-(morpholin-4-ylmethyl)[1,2,4]triazolo[4,3-a]-quinoxaline], in assay [2], the SC Dose at max effect amounted to 5 mg/kg, the “SC Max effect (cumulative agitation score over 60 min)” value is 14 and the SC LAD (lowest active dose) turned out to be 5 mg/kg.

As to `CCOC(=O)c1ccc2nc(C)c3nnc(-c4ccccc4)n3c2c1` [Compound B-2a, Ethyl 4-methyl-1-phenyl[1,2,4]triazolo[4,3-a]quinoxaline-8-carboxylate], the IC50 in assay [1] (setting [3]) is 295 nM.

On to `CCOc1ccc(Cl)c(-c2nnc3c(C)nc4ccc(CN(C)C)cc4n23)c1` [Compound B-142], for which, in assay [1], the IC50 was 316 nM. In assay [2], the SC Dose at max effect stood at 10 mg/kg, the “SC Max effect (cumulative agitation score over 60 min)” value came to 22 and the SC LAD (lowest active dose) is > 10 mg/kg.

On to `Cc1nc2ccc(CNCc3ccccc3)cc2n2c(-c3ccccc3Cl)nnc12` [Compound B-99], for which, in assay [1] (setting [3]), the “PIC50 PDE10” value came to 7.3.

Take `Cc1nc2ccc(CN3CCOCC3)cc2n2c(-c3c(F)cccc3Cl)nnc12` [Compound B-23, 1-(2-Chloro-6-fluorophenyl)-4-methyl-8-(morpholin-4-ylmethyl)[1,2,4]triazolo[4,3-a]quinoxaline]: in assay [2], the SC Dose at max effect was 40 mg/kg, the “SC Max effect (cumulative agitation score over 60 min)” value is recorded as 1 and the SC LAD (lowest active dose) worked out at 0.63 mg/kg.

Take `CCCCOc1ccc(Cl)c(-c2nnc3c(C)nc4ccc(CNCC)cc4n23)c1` [Compound B-101]: the IC50 in assay [1] was 5500 nM.

`CCCOc1cncc(-c2nnc3c(C)nc4ccc(CNCC)cc4n23)c1` [Compound B-178]: the IC50 in assay [1] is > 10000 nM.

`CCNCc1ccc2nc(C)c3nnc(-c4cc(OC(C)C)ccc4Cl)n3c2c1` [Compound B-148]: the “PIC50 PDE10” value in assay [1] (setting [3]) amounted to 5.07.

For the compound `CCNCc1ccc2nc(C)c3nnc(-c4cc(OCC)ccc4Cl)n3c2c1` [Compound B-151a], the “PIC50 PDE10” value in assay [1] (setting [3]) was 6.04.

For `Cc1nc2ccc(CN3CCC(O)C3)cc2n2c(-c3ccccc3Cl)nnc12` (centres unmarked) [Compound B-57], the IC50 in assay [1] is 18.2 nM. For the same compound, in assay [2], the SC Dose at max effect came out at 10 mg/kg, the “SC Max effect (cumulative agitation score over 60 min)” value came out at 22 and the SC LAD (lowest active dose) is > 10 mg/kg.

Turning to `CCNCc1ccc2nc(C)c3nnc(-c4cncc(OCC5CC5)c4)n3c2c1` [Compound B-211], in assay [1] (setting [3]), the IC50 was > 10000 nM.

Turning to `CCCCOc1cc(-c2nnc3c(C)nc4ccc(CN5CCOCC5)cc4n23)cnc1Cl` [Compound B-202], in assay [1] (setting [3]), the IC50 was > 10000 nM.

As for `CCCCOc1ccc(F)c(-c2nnc3c(C)nc4ccc(Br)cc4n23)c1` [Compound B-95], the IC50 in assay [1] is 1740 nM.

For the compound `CCCCOc1cncc(-c2nnc3c(C)nc4ccc(CNC)cc4n23)c1` [Compound B-200], in assay [1], the IC50 is > 10000 nM.

As to `CCCCOc1ccc(F)c(-c2nnc3c(C)nc4cc(C#N)ccc4n23)c1` [Compound B-176], the IC50 in assay [1] is > 10000 nM.

As for `Cc1nc2ccc(C(=O)NCc3ccccc3)cc2n2c(-c3ccccc3)nnc12` [Compound B-9, N-Benzyl-4-methyl-1-phenyl[1,2,4]triazolo[4,3-a]quinoxaline-8-carboxamide], the IC50 in assay [1] was 41.7 nM. In assay [2], the PO Dose at Max Effect is 2.5 mg/kg, the “PO Max effect (cumulative agitation score over 60 min)” value came to 22 and the PO LAD (lowest active dose) was > 2.5 mg/kg.

In the case of `CCCCOc1ccc(Cl)c(-c2nnc3c(C)nc4ccc(CNC)cc4n23)c1` [Compound B-192], in assay [1] (setting [3]), the “PIC50 PDE10” value was determined as 5.04.

As for `CCNC(=O)c1ccc2nc(C)c3nnc(-c4cccnc4)n3c2c1` [Compound B-127], the IC50 in assay [1] (setting [3]) is 1820 nM.

For `Cc1nc2ccc(CN3CCOCC3)cc2n2c(-c3ccc(F)cc3Cl)nnc12` [Compound B-82], in assay [1], the IC50 was 85.1 nM. For the same compound, in assay [2], the SC Dose at max effect was determined as 10 mg/kg, the “SC Max effect (cumulative agitation score over 60 min)” value came to 9 and the SC LAD (lowest active dose) amounted to 2.5 mg/kg.

For the compound `CCNC(=O)c1ccc2nc(C)c3nnc(-c4c(Cl)cccc4Cl)n3c2c1` [Compound B-33], the IC50 in assay [1] (setting [3]) is 12.3 nM.

Take `Cc1nc2ccc(C(=O)NCCN3CCOCC3)cc2n2c(-c3ccccc3Cl)nnc12` [Compound B-36]: the IC50 in assay [1] is 11.2 nM. For the same compound, in assay [2], the SC Dose at max effect turned out to be 10 mg/kg, the “SC Max effect (cumulative agitation score over 60 min)” value is listed as 21 and the SC LAD (lowest active dose) was > 10 mg/kg.

Consider `CCCCOc1cncc(-c2nnc3c(C)nc4ccc(CN5CCOCC5)cc4n23)c1.Cl` [Compound B-17a, 1-(5-Butoxypyridin-3-yl)-4-methyl-8-(morpholin-4-ylmethyl) [1,2,4]triazolo[4,3-a]quinoxaline hydrochloride], for which, in assay [2], the SC Dose at max effect was 40 mg/kg, the “SC Max effect (cumulative agitation score over 60 min)” value was 23 and the SC LAD (lowest active dose) was > 40 mg/kg.

Regarding `CCCOc1ccc(Cl)c(-c2nnc3c(C)nc4ccc(CN(C)C)cc4n23)c1` [Compound B-112], the IC50 in assay [1] was 1480 nM.

As to `CCOC(=O)c1ccc2c(c1)nc(C)c1nnc(-c3ccccc3)n12` [Compound B-2b, Ethyl 4-methyl-1-phenyl[1,2,4]triazolo[4,3-a]quinoxaline-7-carboxylate], the “PIC50 PDE10” value in assay [1] (setting [3]) is given as 5.57.

Take `CCNC(=O)c1ccc2nc(C)c3nnc(-c4cnccc4C)n3c2c1` [Compound B-109]: in assay [1], the IC50 is 851 nM.

For the compound `CCCOc1ccc(Cl)c(-c2nnc3c(C)nc4ccc(Br)cc4n23)c1` [Compound B-92], the IC50 in assay [1] is 468 nM.

`Cc1nc2ccc(CNC(C)C)cc2n2c(-c3cncc(OCC4CC4)c3)nnc12` [Compound B-210]: the IC50 in assay [1] was 1450 nM.

As to `Cc1nc2ccc(CN(C)C)cc2n2c(-c3cncc(OCC4CC4)c3)nnc12` [Compound B-205], the IC50 in assay [1] was > 10000 nM.

For `CCCCOc1cncc(-c2nnc3c(C)nc4ccc(CNC(C)C)cc4n23)c1` [Compound B-153], in assay [1] (setting [3]), the IC50 is > 10000 nM.

In the case of `CCNC(=O)c1ccc2nc(C)c3nnc(-c4cncc(OC)c4)n3c2c1` [Compound B-80], in assay [1], the IC50 was 741 nM.

With `CCCOc1ccc(Cl)c(-c2nnc3c(C)nc4ccc(CNCC)cc4n23)c1` [Compound B-111], the IC50 in assay [1] was 1780 nM.

`CCCOc1cncc(-c2nnc3c(C)nc4ccc(CN5CCOCC5)cc4n23)c1` [Compound B-119]: the “PIC50 PDE10” value in assay [1] (setting [3]) was 5.21.

On to `CCCCOc1ccc(F)c(-c2nnc3c(C)nc4cc(Br)ccc4n23)c1` [Compound B-175], for which, in assay [1], the IC50 is > 10000 nM.

On to `Cc1nc2ccc(CN3CCOCC3)cc2n2c(-c3cc(OC(C)C)ccc3Cl)nnc12` [Compound B-58], for which the “PIC50 PDE10” value in assay [1] (setting [3]) was determined as 5.73.

Take `CCNC(=O)c1ccc2nc(C)c3nnc(-c4cccnc4)n3c2c1` [Compound B-143]: the IC50 in assay [1] (setting [3]) is 1350 nM.

In the case of `Cc1nc2ccc(CN(C)C)cc2n2c(-c3cc(OC(C)C)ccc3Cl)nnc12` [Compound B-141], in assay [1] (setting [3]), the “PIC50 PDE10” value was 5.8.

As to `CCCCOc1ccc(F)c(-c2nnc3c(C)nc4ccc(C#N)cc4n23)c1` [Compound B-120], the IC50 in assay [1] is 3550 nM.

In the case of `Cc1nc2ccc(CN3CCOCC3)cc2n2c(-c3cncc(OCC4CC4)c3)nnc12` [Compound B-193], in assay [1] (setting [3]), the “PIC50 PDE10” value is 5.44.

With `CCCCOc1cncc(-c2nnc3c(C)nc4ccc(CNCC)cc4n23)c1` [Compound B-150], the IC50 in assay [1] is > 10000 nM.

Regarding `CCNCc1ccc2nc(C)c3nnc(-c4ccccc4Cl)n3c2c1` [Compound B-20, N-{[1-(2-Chlorophenyl)-4-methyl[1,2,4]triazolo[4,3-a]quinoxalin-8-yl]methyl}-ethanamine], in assay [2], the SC Dose at max effect was found to be 10 mg/kg, the “SC Max effect (cumulative agitation score over 60 min)” value is 21 and the SC LAD (lowest active dose) is > 10 mg/kg.
